Assay results from US10253081B2, “Glucagon analogues” (Zealand Pharma A/S, priority 2012, dated 2019).
Like-named read-outs stand apart in the source and are kept apart here. *1 amine or outer side, *2 acyl side, *3 side chain or, on linkers, in order; H or OH if unused. Where a SMILES comes first, the peptide text is derived from it. Side-chain parts run from the residue outwards. [ ]: non-standard residue; d: D form. The star is where a group is joined. γGlu = O=C(O)[C@H](CCC(=O)[*:2])N[*:1]; Palmitoyl = CCCCCCCCCCCCCCCC(=O)*; Aib = CC(C)(N)C(=O)O

Experiments:
[1] = Sub-chronic effects on adiposity/body weight in diet-induced obese mice; format: in vivo, C57BL/6J mice; conditions: DIO mice, 5 nmol/kg s.c. twice daily for 31 days
Description: Male C57BL/6J mice (Taconic A/S, Denmark) at an age of 5 weeks were maintained on a 12:12 hour light-dark cycle on a high-fat diet (60% of total energy from fat, D12492, Research Diet Inc.) for 20 weeks. All mice (housed 2 per cage) were then mock-treated for a week to acclimatize the animals to handling and injections. Subsequently, the mice were stratified according to body fat mass (measured by magnetic resonance technique) and body weight into 9 groups (n=9-12). Animals were thereafter treated twice daily with subcutaneous injections (5 ml/kg) of vehicle (25 mM phosphate buffer, pH 7.4) or test substances (5 nmol/kg per administration, in equivalent amount of vehicle) for a total of 31 days. The daily injections were given at the start and at the end of the light phase. Body weight, food and water intake were determined daily throughout the study. The data are presented in Table 6 as mean body weight change±S.E.M. S.E.M. is defined as standard error of the mean and was calculated using the formula: S.E.M.=SD/square root (n), where SD is the standard deviation and n the number of observations (in this case animals/group).
Statistical analyses were performed using Graph Pad Prism version 5. The measured parameters were compared using one-way ANOVA followed by Dunnett's multiple comparison test. Differences were considered statistically significant at p<0.05.

[2] = biological target: T1, human glucagon receptor (Glucagon-R) (Homo sapiens, UniProt P47871); assay: Glucagon receptor efficacy assay (cAMP AlphaScreen, CHO cells); format: cell-based; conditions: Table 1A; CHO cells expressing human Glucagon-R, cAMP; read-out: EC50 hGCGR CHO-K1
T1 construct: expressed in transfected cells
T1 sequence (P47871 26-477): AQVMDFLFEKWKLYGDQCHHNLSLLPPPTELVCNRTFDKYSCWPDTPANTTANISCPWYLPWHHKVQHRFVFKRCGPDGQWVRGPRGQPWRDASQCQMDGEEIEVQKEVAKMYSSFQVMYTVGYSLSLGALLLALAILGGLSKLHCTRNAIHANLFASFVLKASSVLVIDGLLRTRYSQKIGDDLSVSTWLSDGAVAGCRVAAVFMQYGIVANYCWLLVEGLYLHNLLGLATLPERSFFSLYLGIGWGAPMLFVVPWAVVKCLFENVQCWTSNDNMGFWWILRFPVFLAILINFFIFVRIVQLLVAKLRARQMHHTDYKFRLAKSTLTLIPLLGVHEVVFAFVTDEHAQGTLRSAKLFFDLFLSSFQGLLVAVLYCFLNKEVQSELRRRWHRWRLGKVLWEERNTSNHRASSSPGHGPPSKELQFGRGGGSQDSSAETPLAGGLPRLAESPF
Summary of the method: (§1)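 Stably transfected CHO clones expressing human GLP-1R or glucagon receptor were treated with increasing peptide concentrations for 15 min at room temperature in KRBH containing 0.1 mM IBMX. After lysis, cAMP was quantified by AlphaScreen; EC50 and efficacy relative to GLP-1 or glucagon reference came from curve fitting.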

[3] = biological target: T2, human glucagon-like peptide 1 receptor (GLP-1R) (Homo sapiens, UniProt P43220); assay: GLP-1 receptor efficacy assay (cAMP AlphaScreen, CHO cells); format: cell-based; conditions: Table 1A; for EC50: CHO cells expressing human GLP-1-R, cAMP, read-out: EC50 hGLP-1R CHO-K1; for Ratio GLP-1/Glucagon: EC50 [GLP-1R]/EC50 [Glucagon-R]
T2 construct: expressed in transfected cells
T2 sequence (P43220 24-463): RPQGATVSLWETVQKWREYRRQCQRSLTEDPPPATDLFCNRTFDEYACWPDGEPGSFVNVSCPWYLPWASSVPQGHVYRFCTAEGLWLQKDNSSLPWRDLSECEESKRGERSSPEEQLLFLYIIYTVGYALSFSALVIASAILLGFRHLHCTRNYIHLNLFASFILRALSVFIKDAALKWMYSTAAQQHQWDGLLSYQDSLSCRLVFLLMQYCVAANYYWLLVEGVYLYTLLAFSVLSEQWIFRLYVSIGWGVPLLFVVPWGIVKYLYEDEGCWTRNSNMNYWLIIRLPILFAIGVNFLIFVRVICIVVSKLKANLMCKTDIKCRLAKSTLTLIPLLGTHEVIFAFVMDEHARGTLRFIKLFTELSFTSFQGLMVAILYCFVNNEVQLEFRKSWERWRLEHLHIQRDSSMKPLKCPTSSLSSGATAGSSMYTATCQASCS
Summary of the method: as §1

[4] = Pharmacokinetic parameters after subcutaneous and intravenous administration to mice; format: in vivo; conditions: male, mouse, plasma, 20 nmol/kg, C57Bl/6J mice; for half-life: read-out: Terminal half life (converted); for MRT: read-out: Mean Residence Time
Summary of the method: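 Male C57Bl/6J mice (8–11 weeks) given GLP-1-glucagon dual agonists at 20 nmol/kg s.c. (neck) or i.v. (tail vein), dosing solution 4 μM in PBS with 25 mM phosphate, pH 7.4. Plasma sampled to 24 h, measured by LC-MS/MS; parameters by non-compartmental analysis.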

[5] = Oral glucose tolerance test (OGTT); format: in vivo, C57BL/6J mice; conditions: blood glucose AUC 0-120 min, 10 nmol/kg s.c. 4 h before oral glucose 2 g/kg
Summary of the method: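 Male C57BL/6J mice (n=7) were fasted for 10 h and given peptide at 10 nmol/kg s.c. in phosphate-buffered saline 4 h before an oral glucose bolus of 2 g/kg; controls got vehicle. Tail-blood glucose was read by glucometer up to 120 min, and AUC was computed by the trapezoidal rule without baseline correction.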

CCCCCCCCCCCCCCCC(=O)N[C@@H](CCC(=O)NCCCC[C@H](NC(=O)[C@H](CO)NC(=O)[C@H](CC(=O)O)NC(=O)[C@H](CC(C)C)NC(=O)[C@H](Cc1ccc(O)cc1)NC(=O)[C@H](CCCCN)NC(=O)[C@H](CO)NC(=O)[C@H](Cc1ccc(O)cc1)NC(=O)[C@H](CC(=O)O)NC(=O)[C@H](CO)NC(=O)[C@@H](NC(=O)[C@H](Cc1ccccc1)NC(=O)[C@@H](NC(=O)CNC(=O)[C@H](CCC(N)=O)NC(=O)[C@H](CO)NC(=O)[C@@H](N)Cc1c[nH]cn1)[C@@H](C)O)[C@@H](C)O)C(=O)N[C@@H](C)C(=O)N[C@@H](C)C(=O)N[C@@H](CCC(=O)O)C(=O)N[C@@H](CC(=O)O)C(=O)N[C@@H](Cc1ccccc1)C(=O)N[C@H](C(=O)N[C@@H](CCC(=O)O)C(=O)N[C@@H](Cc1c[nH]c2ccccc12)C(=O)N[C@@H](CC(C)C)C(=O)N[C@@H](CC(C)C)C(=O)N[C@@H](CCCNC(=N)N)C(=O)N[C@@H](C)C(N)=O)C(C)C)C(=O)O [Compound 7, H-HSQGTFTSDYSKYLDS-K(Hexadecanoyl-isoGlu)-AAEDFVEWLLRA-NH2] (H-HSQGTFTSDYSKYLDSK([γGlu-Palmitoyl])AAEDFVEWLLRA-NH2)
Mean body weight change [1]: −8.7%
EC50 [2]: 0.45 nM
EC50 [3]: 0.27 nM
Ratio GLP-1/Glucagon [3]: 0.60
clearance ([4]; IV): 0.22 mL/min/kg
half-life ([4]; IV): 5.5 h
Tmax ([4]; SC): 4 h
bioavailability ([4]; SC): 75%
MRT ([4]; SC): 12.8 h
half-life ([4]; SC): 8.6 h
AUC (% Ctrl) [5]: 57 % Ctrl

CCCCCCCCCCCCCCCC(=O)N[C@@H](CCC(=O)NCCCC[C@H](NC(=O)[C@H](CO)NC(=O)[C@H](CC(=O)O)NC(=O)[C@H](CC(C)C)NC(=O)[C@H](Cc1ccc(O)cc1)NC(=O)[C@H](CCCCN)NC(=O)[C@H](CO)NC(=O)[C@H](Cc1ccc(O)cc1)NC(=O)[C@H](CC(=O)O)NC(=O)[C@H](CO)NC(=O)[C@@H](NC(=O)[C@H](Cc1ccccc1)NC(=O)[C@@H](NC(=O)CNC(=O)[C@H](CCC(N)=O)NC(=O)[C@H](CO)NC(=O)[C@@H](N)Cc1c[nH]cn1)[C@@H](C)O)[C@@H](C)O)C(=O)N[C@@H](C)C(=O)N[C@@H](C)C(=O)N[C@@H](Cc1c[nH]cn1)C(=O)N[C@@H](CC(=O)O)C(=O)N[C@@H](Cc1ccccc1)C(=O)N[C@H](C(=O)N[C@@H](CCC(=O)O)C(=O)N[C@@H](Cc1c[nH]c2ccccc12)C(=O)N[C@@H](CC(C)C)C(=O)N[C@@H](CC(C)C)C(=O)N[C@@H](CO)C(=O)N[C@@H](C)C(=O)O)C(C)C)C(=O)O [Compound 2, H-HSQGTFTSDYSKYLDS-K(Hexadecanoyl-isoGlu)-AAHDFVEWLLSA-OH] (H-HSQGTFTSDYSKYLDSK([γGlu-Palmitoyl])AAHDFVEWLLSA-OH)
Mean body weight change [1]: −5.1%
EC50 [2]: 0.31 nM
EC50 [3]: 0.77 nM
Ratio GLP-1/Glucagon [3]: 2.48
clearance ([4]; IV): 0.185 mL/min/kg
half-life ([4]; IV): 5 h
Tmax ([4]; SC): 4 h
bioavailability ([4]; SC): 59%
MRT ([4]; SC): 11.2 h
half-life ([4]; SC): 5.1 h
AUC (% Ctrl) [5]: 66 % Ctrl

CCCCCCCCCCCCCCCC(=O)N[C@@H](CCC(=O)NCCCC[C@H](NC(=O)[C@H](CO)NC(=O)[C@H](CC(=O)O)NC(=O)[C@H](CC(C)C)NC(=O)[C@H](Cc1ccc(O)cc1)NC(=O)[C@H](CCCCN)NC(=O)[C@H](CO)NC(=O)[C@H](Cc1ccc(O)cc1)NC(=O)[C@H](CC(=O)O)NC(=O)[C@H](CO)NC(=O)[C@@H](NC(=O)[C@H](Cc1ccccc1)NC(=O)[C@@H](NC(=O)CNC(=O)[C@H](CCC(N)=O)NC(=O)C(C)(C)NC(=O)[C@@H](N)Cc1c[nH]cn1)[C@@H](C)O)[C@@H](C)O)C(=O)N[C@@H](C)C(=O)N[C@@H](C)C(=O)N[C@@H](CCC(=O)O)C(=O)N[C@@H](CC(=O)O)C(=O)N[C@@H](Cc1ccccc1)C(=O)N[C@H](C(=O)N[C@@H](CCC(=O)O)C(=O)N[C@@H](Cc1c[nH]c2ccccc12)C(=O)N[C@@H](CC(C)C)C(=O)N[C@@H](CCC(=O)O)C(=O)N[C@@H](CO)C(=O)N[C@@H](C)C(N)=O)C(C)C)C(=O)O [Compound 16, H-H-Aib-QGTFTSDYSKYLDS-K(Hexadecanoyl-isoGlu)-AAEDFVEWLESA-NH2] (H-H[Aib]QGTFTSDYSKYLDSK([γGlu-Palmitoyl])AAEDFVEWLESA-NH2)
Mean body weight change [1]: −12.2%
EC50 [2]: 1.58 nM
EC50 [3]: 0.2 nM
Ratio GLP-1/Glucagon [3]: 0.13
clearance ([4]; IV): 0.312 mL/min/kg
half-life ([4]; IV): 4.8 h
Tmax ([4]; SC): 2 h
bioavailability ([4]; SC): 80%
MRT ([4]; SC): 7.5 h
half-life ([4]; SC): 5 h
AUC (% Ctrl) [5]: 44 % Ctrl

CCCCCCCCCCCCCCCC(=O)N[C@@H](CCC(=O)NCCCC[C@H](NC(=O)[C@H](CCC(=O)O)NC(=O)[C@H](CC(=O)O)NC(=O)[C@H](CC(C)C)NC(=O)[C@H](Cc1ccc(O)cc1)NC(=O)[C@H](CCCCN)NC(=O)[C@H](CO)NC(=O)[C@H](Cc1ccc(O)cc1)NC(=O)[C@H](CC(=O)O)NC(=O)[C@H](CO)NC(=O)[C@@H](NC(=O)[C@H](Cc1ccccc1)NC(=O)[C@@H](NC(=O)CNC(=O)[C@H](CCC(N)=O)NC(=O)C(C)(C)NC(=O)[C@@H](N)Cc1c[nH]cn1)[C@@H](C)O)[C@@H](C)O)C(=O)N[C@@H](C)C(=O)N[C@@H](C)C(=O)N[C@@H](CCCCN)C(=O)N[C@@H](CC(=O)O)C(=O)N[C@@H](Cc1ccccc1)C(=O)N[C@H](C(=O)N[C@@H](CCC(=O)O)C(=O)N[C@@H](Cc1c[nH]c2ccccc12)C(=O)N[C@@H](CC(C)C)C(=O)N[C@@H](CCC(=O)O)C(=O)N[C@@H](CO)C(=O)N[C@@H](C)C(N)=O)[C@@H](C)CC)C(=O)O [Compound 15, H-H-Aib-QGTFTSDYSKYLDE-K(Hexadecanoyl-isoGlu)-AAKDFIEWLESA-NH2]
Mean body weight change [1]: −10.9%
EC50 [2]: 0.61 nM
EC50 [3]: 0.19 nM
Ratio GLP-1/Glucagon [3]: 0.31
clearance ([4]; IV): 0.128 mL/min/kg
half-life ([4]; IV): 6 h
Tmax ([4]; SC): 6 h
bioavailability ([4]; SC): 97%
MRT ([4]; SC): 17.4 h
half-life ([4]; SC): 10.5 h
AUC (% Ctrl) [5]: 42 % Ctrl

CCCCCCCCCCCCCCCC(=O)N[C@@H](CCC(=O)NCCCC[C@H](NC(=O)[C@H](CCC(=O)O)NC(=O)[C@H](CC(=O)O)NC(=O)[C@H](CC(C)C)NC(=O)[C@H](Cc1ccc(O)cc1)NC(=O)[C@H](CCCCN)NC(=O)[C@H](CO)NC(=O)[C@H](Cc1ccc(O)cc1)NC(=O)[C@H](CC(=O)O)NC(=O)[C@H](CO)NC(=O)[C@@H](NC(=O)[C@H](Cc1ccccc1)NC(=O)[C@@H](NC(=O)CNC(=O)[C@H](CCC(N)=O)NC(=O)C(C)(C)NC(=O)[C@@H](N)Cc1c[nH]cn1)[C@@H](C)O)[C@@H](C)O)C(=O)N[C@@H](CCCNC(=N)N)C(=O)N[C@@H](C)C(=O)N[C@@H](CCCCN)C(=O)N[C@@H](CC(=O)O)C(=O)N[C@@H](Cc1ccccc1)C(=O)N[C@H](C(=O)N[C@@H](CCC(=O)O)C(=O)N[C@@H](Cc1c[nH]c2ccccc12)C(=O)N[C@@H](CC(C)C)C(=O)N[C@@H](CC(C)C)C(=O)N[C@@H](CO)C(=O)N[C@@H](C)C(=O)O)[C@@H](C)CC)C(=O)O [Compound 14, H-H-Aib-QGTFTSDYSKYLDE-K(Hexadecanoyl-isoGlu)-RAKDFIEWLLSA-OH] (H-H[Aib]QGTFTSDYSKYLDEK([γGlu-Palmitoyl])RAKDFIEWLLSA-OH)
Mean body weight change [1]: −9.5%
EC50 [2]: 0.54 nM
EC50 [3]: 0.53 nM
Ratio GLP-1/Glucagon [3]: 0.98
clearance ([4]; IV): 0.225 mL/min/kg
half-life ([4]; IV): 6.2 h
Tmax ([4]; SC): 4 h
bioavailability ([4]; SC): 64%
MRT ([4]; SC): 12.2 h
half-life ([4]; SC): 6.1 h
AUC (% Ctrl) [5]: 59 % Ctrl
